Results as given in patent publication EP0723577B1, “DETERGENT COMPOSITIONS CONTAINING SILVER ANTI-TARNISHING AGENTS” (UNILEVER N.V., priority 1993, dated 1995).
Blank lines part the entries; values can stand above or below the compound they belong to.

Key:
[1] = Tarnish-monitoring experiments in a dishwasher with varied bleaching agent and mainwash pH, visual evaluation against the Example 1 reference scale; conditions: for reduction of tarnishing: pH 7.5 (peracetic acid 4.12%); for reduction in tarnishing: pH 10.5 (sodium hypochlorite 8.23%)
Protocol: (§1) Tarnishing-monitoring experiments were conducted, using samples A, B, C, D, E, and F at a product dosage of 40 grams per run in a Bauknecht GSF 3162 dishwasher, with an intake of 5 litres water. The mainwash pH values for compositions A and B were adjusted to 7.5; the mainwash pH values for compositions C and D were adjusted to 8.5. Two experiments (each) were conducted, using compositions E and F; the mainwash pH values were adjusted to 9.0 and 10.5, respectively. Silver-plated spoons, knives, and forks (supplied by Oneida Silversmiths, USA), were used as monitors for all experiments. The monitors were washed in a commercially available hand dishwashing liquid and rinsed with deionized water and acetone before use. At the end of the dishwashing machine program, the monitors were visually evaluated for the presence of colours and/or loss of shine, according to the reference scale described in Example 1.
as §1, with “Tarnish monitoring” for “Tarnishing-monitoring”, “conducted” for “conducted,”, “compositions” for “samples”, “D E” for “D, E,”, “available” for “available hand”
Tarnish monitoring experiments were conducted using compositions A, B, C, D, E and F at a product dosage of 40 grams per run in a Bauknecht GSF 3162 dishwasher, with an intake of 5 litres water. The mainwash pH values for compositions A and B were adjusted to 7.5; the mainwash pH values for compositions C and D were adjusted to 8.5. Two experiments (each) were conducted using compositions E and F; the mainwash pH values were adjusted to 9.0 and 10.5. respectively. Silver-plated spoons, knives and forks (supplied by Oneida Silversmiths, USA), were used as monitors for all experiments. The monitors were washed in a commercially available dishwashing liquid and rinsed with deionized water and acetone before use. At the end of the dishwashing machine program, the monitors were visually evaluated for the presence of colours and/or loss of shine, according to the reference scale described in Example 1.

physchem = format: physicochemical
Protocol: As used herein, the term "pKa" means a pH value at which 50% of the heterocyclic ring moieties of the compound (particularly the five-membered rings in the case of the purine class compounds) are in ionic form.
The pH of this solution was adjusted to 3.0 with H2SO4. The solution was then titrated with 1N NaOH to pH 11.0. A plot of mls. NaOH vs. pH for each sample was prepared. The pKa of the compound is that point where the maximum change in pH as a function of mls. NaOH is observed.

[2] = Silver plates held in the compositions for 25 minutes, evaluated for tarnishing; conditions: 4 wt.% epsilon-phthalimido peroxyhexanoic acid
Protocol: (§2) A comparison of anti-tarnishing performance of purine class compounds within the scope of the invention and azole compounds outside the invention was conducted. The selected compounds were incorporated in an amount of 1 wt.% in a machine dishwashing composition containing 4 wt.% epsilon-phthalimido peroxyhexanoic acid as the bleaching agent. The pH values of the compositions were adjusted by the addition of a 50% solution of sodium hydroxide or concentrated sulfuric acid, as necessary.
(§3) Copper plates and silver plates were held in each of the compositions for 25 minutes, removed, rinsed with deionized water and evaluated for tarnishing. […]
as §2, with “1,3-N azole” for “purine class”
as §3

[3] = Tarnish-monitoring experiments in a dishwasher, monitors visually ranked 0 to 6 against the Example 1 reference scale
Protocol: The wash program consisted of a pre-wash at 40°C, a mainwash at 55°C, two intermediate rinses, and a final rinse at 65°C.
The mainwash pH with these compositions was typically 8.7. Silver-plated spoons (2 per run) were the monitors used in the test. The spoons were supplied by Oneida Silversmiths, USA. The monitors were washed in a commercially available hand dishwash liquid and rinsed with deionized water and acetone before use. In the dishwasher the monitors were kept apart from each other in the cutlery basket. At the end of a single-run machine program, the monitors were visually analyzed for the presence of colours and the loss of gloss.
This ranking of spoons was used as a reference scale for all subsequent Examples.

[4] = Example 11: 1,2,4-triazole 1.0%

pKa (physchem): 5.5
Compound: c1ncc2[nH]cnc2n1 [Purine]
level of tarnishing relative to the samples which did not contain purine ([1]; Example 4: purine 1.0%, peracetic acid pH 7.5, epsilon-phthalimidoperoxy hexanoic acid pH 8.5, sodium hypochlorite pH 9.0 and 10.5): greatest at pH values of 7.5, 8.5 and 9.0 | Effective Silver Anti-Tarnishing ([2]; Example 5: 1 wt.% compound, pH of composition 8.6): Yes (A tarnish score of 3 or less was considered effective as a silver anti-tarnishing compound)

Compound: O=c1[nH]c(=O)[nH]c(=O)[nH]1 [cyanuric acid, 1,3,5-triazine-2,4,6(1H,3H,5H)-trione]
level which gives optimum anti-tarnish performance ([3]; Example 9): about 1% | appearance of the monitors ([3]; Example 9, cyanuric acid at a 2.5% level): slightly yellow appearance | reduction of tarnishing ([1]; Example 8: cyanuric acid 1.0%): 1.5 units of tarnishing | reduction in tarnishing ([1]; Example 8: cyanuric acid 1.0%): 3.0 units | level of tarnishing relative to the case where no anti-tarnish agent was present ([1]; Example 8: cyanuric acid 1.0%, peracetic acid, epsilon-phthalimidoperoxyhexanoic acid or sodium hypochlorite, pH 7.5 to 10.5): reduced the level of tarnishing

level of tarnishing relative to the case where no anti-tarnishing agent was present ([1]; Example 11: 1,2,4-triazole 1.0%, peracetic acid, epsilon-phthalimidoperoxyhexanoic acid or sodium hypochlorite, pH 7.5 to 10.5): reduced the level of tarnishing | pKa of compounds (physchem; deionized water): 5.4
Compound: c1nc[nH]n1 [1,2,4-triazole]
level at which optimum performance was achieved ([3]; Example 12): 1 % by weight | silver tarnishing, in words ([3]; Example 12, at amounts of 0.05 % by weight): effectively reduced silver tarnishing | reduction of tarnishing [1, 4]: 1.5 units of tarnishing | reduction in tarnishing [1, 4]: 3.0 units | Effective Silver Anti-Tarnishing ([2]; Example 13: 1 wt.% compound, pH of composition 8.8): Yes (A tarnish score of 3 or less was considered effective as a silver anti-tarnishing compound)
